According to patent publication US9605004B2, “Chemical compounds” (SYNGENTA LIMITED, priority 2013, dated 2017):

Tests used:
[1] = tested on: a variety of test species; assay: Pre-emergence herbicidal activity (Example 8a, Table 2); type: in vivo; set-up: key: 0 = no damage to plant, 5 = total damage to plant; settings: application pre-emergence, rate 1000 g/ha, evaluated after 13 days
How it was run: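 Seeds sown in standard soil in pots, sprayed one day later (pre-emergence) with aqueous solution from acetone/water (50:50) formulation with 0.5% Tween 20. Glasshouse at 24/16 °C day/night, 14 h light, 65% humidity, watered twice daily. Damage scored after 13 days, 0 (none) to 5 (total).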

[2] = tested on: a variety of test species; assay: Post-emergence herbicidal activity (Example 8b, Table 3); type: in vivo; settings: application post-emergence, rate 1000 g/ha, evaluated after 13 days, scale 0-5; for Herbicidal damage score, ABUTH: Abutilon theophrasti; for Herbicidal damage score, ALOMY: Alopecurus myosuroides; for Herbicidal damage score, AMARE: Amaranthus retroflexus; for Herbicidal damage score, ECHCG: Echinochloa crus-galli; for Herbicidal damage score, SETFA: Setaria faberi; for Herbicidal damage score, ZEAMX: Zea mays
How it was run: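 Pot-grown plants, 8 days after sowing, were sprayed with compound formulated in acetone/water (50:50) with 0.5% Tween 20. Glasshouse conditions 24/16° C day/night, 14 h light, 65% humidity; damage scored after 13 days on a 0 (none) to 5 (total) scale.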

Row | SMILES | Pre-emergence herbicidal activity, damage score ABUTH [1] | Pre-emergence herbicidal activity, damage score ALOMY [1] | Pre-emergence herbicidal activity, damage score AMARE [1] | Pre-emergence herbicidal activity, damage score ECHCG [1] | Pre-emergence herbicidal activity, damage score SETFA [1] | Pre-emergence herbicidal activity, damage score ZEAMX [1] | Herbicidal damage score, ABUTH [2] | Herbicidal damage score, ALOMY [2] | Herbicidal damage score, AMARE [2] | Herbicidal damage score, ECHCG [2] | Herbicidal damage score, SETFA [2] | Herbicidal damage score, ZEAMX [2]
1 | CC1=C(Cl)C(=O)N(c2cc(C(F)(F)F)n(C(C)C)n2)C1O (stereo not drawn) [Compound C7] | 4 | 3 | 4 | 4 | 4 | 3 | 4 | 4 | 4 | 5 | 4 | 2
2 | CCn1nc(N2C(=O)C(Cl)=C(C)C2O)cc1C(C)(C)C (stereo not drawn) [Compound C8] | 4 | 4 | 5 | 4 | 5 | 2 | 5 | 5 | 4 | 5 | 5 | 3
3 | CC1=C(Cl)C(=O)N(c2cc(C(F)(F)F)n(CC(F)(F)F)n2)C1O (stereo not drawn) [Compound C9] | 2 | 3 | 3 | 4 | 4 | 2 | 4 | 5 | 5 | 5 | 5 | 3
4 | CC1=C(Cl)C(=O)N(c2cc(C#N)n(CC(F)(F)F)n2)C1O (stereo not drawn) [Compound C11] | 5 | 0 | 2 | 1 | 1 | 1 | 5 | 2 | 1 | 4 | 3 | 2
5 | CC1=C(Cl)C(=O)N(c2cc(C)n(C(F)F)n2)C1O (stereo not drawn) [Compound C12] | 5 | 3 | 5 | 4 | 3 | 2 | 5 | 4 | 5 | 5 | 5 | 3
6 | CC1=C(Cl)C(=O)N(c2cc(C)n(C(F)(F)F)n2)C1O (stereo not drawn) [Compound C13] | 3 | 2 | 2 | 2 | 2 | 0 | 1 | 1 | 1 | 1 | 2 | 1
7 | CC1=C(Cl)C(=O)N(c2nn(C)c(C(C)(C)C)c2C#N)C1O (stereo not drawn) [Compound D1] | 5 | 4 | 5 | 4 | 4 | 2 | 5 | 4 | 5 | 5 | 5 | 3
